Experimental data reported in patent US8383623B2, “Phthalazin-(2H)-one inhibitors of kinases” (Abbott Laboratories, priority 2010, dated 2013).

Biological target: T1, Cdc7 (BEV coexpressed huCDC7/DBF4) (Homo sapiens, UniProt O00311)
T1 construct: made in house; host or cells: BEV (baculovirus expression vector)
Assay: Cdc7 enzyme inhibition assay ([33P]-ATP, biotinylated peptide substrate, FlashPlate)
Type: biochemical
Conditions: Ki generated from IC50 assuming ATP-competitive inhibition, apparent ATP Km 0.7 μM; 1 μM ATP, 1 hr
Protocol: This example describes the assays that may be used to identify compounds having kinase activity.
Cdc7 (BEV coexpressed huCDC7/DBF4) is prepared internally. Cdc7 assays are conducted as follows with final concentrations as listed. In 384-well v-bottom polypropylene plates, 6 μL compound (2% DMSO), is mixed with 6 μL of Cdc7 (2 ug/mL), and Jerini peptide substrate A-A11 (biotin-C6linker-TPSDSLIYDDGLS) (2 μM), followed by immediate initiation with 6 μL λ-[^33P]-ATP (1 μM, 20 mCi/μmol) using a reaction buffer comprising 25 mM HEPES, pH 7.5, 1 mM DTT, 10 mM MgCl2, 100 μM Na3VO4, 0.075 mg/ml Triton X-100. Reactions are quenched after 1 hr by the addition of 90 μL stop buffer (50 mM EDTA, 2M NaCl). 85 μL of the stopped reactions are transferred to 384-well streptavidin-coated plates (FlashPlate Plus, Perkin Elmer), incubated 30 minutes at room temperature and washed 3 times with 0.05% Tween-20/PBS using an ELX-405 automated plate washer (BioTek), and counted on a TopCount Scintillation Plate Reader (Packard). IC50 values are determined via non-linear regression fitting of enzyme inhibition data and corresponding Ki values are generated assuming ATP-competitive (equilibrium) inhibition and using the experimentally determined apparent ATP Km of 0.7 μM (as determined using the above assay condition, but varying ATP).
Table 1 depicts enzyme inhibition data (Ki) for exemplary compounds. In Table 1, “A” represents a K, of less than 10 nM, “B” represents a K, of between 10 nM and 100 nM, and “C” represents a Ki of greater than 100 nM.

T1 sequence (O00311 whole entry): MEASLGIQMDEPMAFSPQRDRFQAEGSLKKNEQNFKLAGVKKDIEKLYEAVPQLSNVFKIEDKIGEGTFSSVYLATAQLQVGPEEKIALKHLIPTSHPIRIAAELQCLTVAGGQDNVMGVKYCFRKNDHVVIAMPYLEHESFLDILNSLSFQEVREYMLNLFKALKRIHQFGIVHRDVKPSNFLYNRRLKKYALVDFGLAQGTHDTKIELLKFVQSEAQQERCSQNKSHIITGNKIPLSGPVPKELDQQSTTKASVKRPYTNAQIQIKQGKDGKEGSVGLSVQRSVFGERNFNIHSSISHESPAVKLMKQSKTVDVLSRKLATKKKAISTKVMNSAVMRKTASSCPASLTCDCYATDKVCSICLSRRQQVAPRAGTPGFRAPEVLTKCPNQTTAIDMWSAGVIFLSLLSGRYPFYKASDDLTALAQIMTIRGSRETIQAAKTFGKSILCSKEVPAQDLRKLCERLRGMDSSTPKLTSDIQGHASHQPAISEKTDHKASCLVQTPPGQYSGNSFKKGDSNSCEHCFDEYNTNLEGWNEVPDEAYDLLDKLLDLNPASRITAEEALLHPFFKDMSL
T1 sequence (Q9UBU7 whole entry partner): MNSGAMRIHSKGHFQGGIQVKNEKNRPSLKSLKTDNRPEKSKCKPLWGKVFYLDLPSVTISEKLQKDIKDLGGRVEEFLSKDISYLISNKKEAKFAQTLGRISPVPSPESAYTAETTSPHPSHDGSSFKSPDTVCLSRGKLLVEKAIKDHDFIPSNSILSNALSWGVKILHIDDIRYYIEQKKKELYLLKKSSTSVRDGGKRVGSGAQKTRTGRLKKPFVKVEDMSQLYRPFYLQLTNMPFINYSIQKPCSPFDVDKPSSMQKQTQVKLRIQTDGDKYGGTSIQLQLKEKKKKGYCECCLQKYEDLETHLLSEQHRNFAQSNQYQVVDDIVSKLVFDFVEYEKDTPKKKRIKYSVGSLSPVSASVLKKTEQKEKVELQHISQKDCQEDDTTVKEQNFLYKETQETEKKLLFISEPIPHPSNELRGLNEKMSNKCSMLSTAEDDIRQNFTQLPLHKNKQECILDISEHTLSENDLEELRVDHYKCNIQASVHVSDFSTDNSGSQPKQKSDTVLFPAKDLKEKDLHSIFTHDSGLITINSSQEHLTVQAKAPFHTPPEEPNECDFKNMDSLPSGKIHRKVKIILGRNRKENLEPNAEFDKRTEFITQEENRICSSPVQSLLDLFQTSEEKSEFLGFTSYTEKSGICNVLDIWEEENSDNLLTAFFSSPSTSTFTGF

Compound | Ki [nM]
O=c1[nH]nc(CC2CCCNC2)c2cc(-c3c[nH]c4ncccc34)ccc12 (stereo not shown) [Example 7, 4-(piperidin-3-ylmethyl)-6-(1H-pyrrolo[2,3-b]pyridin-3-yl)phthalazin-1(2H)-one] | > 100
O=c1[nH]nc(Cc2cccnc2)c2cc(-c3c[nH]c4ncccc34)ccc12 [Example 8, 4-(pyridin-3-ylmethyl)-6-(1H-pyrrolo[2,3-b]pyridin-3-yl)phthalazin-1(2H)-one] | < 10
O=c1[nH]nc(CC2CCCCN2)c2cc(-c3c[nH]c4ncccc34)ccc12 (stereo not shown) [Example 10, 4-(piperidin-2-ylmethyl)-6-(1H-pyrrolo[2,3-b]pyridin-3-yl)phthalazin-1(2H)-one] | > 100
O=c1[nH]nc(Cc2ccncc2)c2cc(-c3c[nH]c4ncccc34)ccc12 [Example 5, 4-(pyridin-4-ylmethyl)-6-(1H-pyrrolo[2,3-b]pyridin-3-yl)phthalazin-1(2H)-one] | < 10
CN(C)c1ccc(Cc2n[nH]c(=O)c3ccc(-c4c[nH]c5ncccc45)cc23)cc1 [Example 11, 4-[4-(dimethylamino)benzyl]-6-(1H-pyrrolo[2,3-b]pyridin-3-yl)phthalazin-1(2H)-one] | 10 to 100
4-(2,5-dichlorobenzyl)-6-(1H-pyrrolo[2,3-b]pyridin-3-yl)phthalazin-1(2H)-one [Example 6] | > 100
O=c1[nH]nc(Cc2ccccc2)c2cc(-c3cn[nH]c3)ccc12 [Example 3, 4-benzyl-6-(1H-pyrazol-4-yl)phthalazin-1(2H)-one] | 10 to 100
CC(=O)Nc1ccc(Cc2n[nH]c(=O)c3ccc(-c4c[nH]c5ncccc45)cc23)cc1 [Example 12, N-(4-{[4-oxo-7-(1H-pyrrolo[2,3-b]pyridin-3-yl)-3,4-dihydrophthalazin-1-yl]methyl}phenyl)acetamide] | < 10
O=c1[nH]nc(Cc2ccccc2)c2cc(-c3c[nH]c4ncccc34)ccc12 [Example 1, 4-benzyl-6-(1H-pyrrolo[2,3-b]pyridin-3-yl)phthalazin-1(2H)-one] | < 10
O=c1[nH]nc(CC2CCNCC2)c2cc(-c3c[nH]c4ncccc34)ccc12 [Example 9, 4-(piperidin-4-ylmethyl)-6-(1H-pyrrolo[2,3-b]pyridin-3-yl)phthalazin-1(2H)-one] | 10 to 100
O=c1[nH]nc(Cc2ccccc2)c2cc(-c3ccncc3)ccc12 [Example 2, 4-benzyl-6-(pyridin-4-yl)phthalazin-1(2H)-one] | > 100
O=c1[nH]nc(Cc2ccccc2)c2cc(-c3cccnc3)ccc12 [Example 4, 4-benzyl-6-(pyridin-3-yl)phthalazin-1(2H)-one] | > 100
Cn1ccc(Cc2n[nH]c(=O)c3ccc(-c4c[nH]c5ncccc45)cc23)n1 [Example 13, 4-[(1-methyl-1H-pyrazol-3-yl)methyl]-6-(1H-pyrrolo [2,3-b]pyridin-3-yl)phthalazin-1(2H)-one] | 10 to 100
